# Assay results published in article PMC13621370, “Targeting Telomere Shelterin Protein TPP1 with Elbasvir: Induction of Autophagy and Suppression of Esophageal Cancer Tumorigenesis” (Anti-Cancer Agents in Medicinal Chemistry, 2025).
# Target: T1, telomere shelterin protein TPP1 (Homo sapiens, UniProt Q96AP0)
# T1 construct: gene ACD; endogenous protein in RIPA lysate of KYSE150 and TE1 cells; not purified; 2I46 used only for docking
# T1 sequence (Q96AP0 1-458): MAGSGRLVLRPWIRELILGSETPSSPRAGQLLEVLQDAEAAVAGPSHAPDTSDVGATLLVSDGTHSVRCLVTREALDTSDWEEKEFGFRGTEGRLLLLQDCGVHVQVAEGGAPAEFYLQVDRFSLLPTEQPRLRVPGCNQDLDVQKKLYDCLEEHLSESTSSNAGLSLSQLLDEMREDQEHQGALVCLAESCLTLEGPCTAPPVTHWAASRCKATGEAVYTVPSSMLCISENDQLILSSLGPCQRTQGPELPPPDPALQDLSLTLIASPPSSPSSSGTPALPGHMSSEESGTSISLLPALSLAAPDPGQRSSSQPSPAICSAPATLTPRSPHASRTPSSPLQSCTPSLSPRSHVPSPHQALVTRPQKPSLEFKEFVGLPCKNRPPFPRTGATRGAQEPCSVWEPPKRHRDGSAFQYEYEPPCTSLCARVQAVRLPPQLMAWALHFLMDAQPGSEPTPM
# Assay: DARTS (pronase protection, Western blot of TPP1)
# Assay type: biochemical
# Conditions: 400 uM Elbasvir, cell lysate, ambient temperature, 2 h, then pronase 20 min
smiles,measurement,value
COC(=O)N[C@H](C(=O)N1CCC[C@H]1c1ncc(-c2ccc3c(c2)O[C@@H](c2ccccc2)n2c-3cc3cc(-c4cnc([C@@H]5CCCN5C(=O)[C@@H](NC(=O)OC)C(C)C)[nH]4)ccc32)[nH]1)C(C)C [Elbasvir],"DARTS (pronase protection, Western blot of TPP1)","the presence of Elbasvir increased the stability of TPP1 protein, protecting it from proteolysis"
